How the values were obtained:
[1] = Inhibition of collagenase type 4 after 30 mins by fluorescence plate reader
[2] = biological target: 72 kDa type IV collagenase (Homo sapiens, UniProt P08253); experiment: Inhibition of human rheumatoid synovial fibroblasts gelatinase A after 30 mins by fluorescence plate reader
[3] = biological target: Matrix metalloproteinase-9 (Homo sapiens, UniProt P14780); experiment: Inhibition of human neutrophils gelatinase B after 30 mins by fluorescence plate reader
Chain of Matrix metalloproteinase-9 (P14780 whole entry): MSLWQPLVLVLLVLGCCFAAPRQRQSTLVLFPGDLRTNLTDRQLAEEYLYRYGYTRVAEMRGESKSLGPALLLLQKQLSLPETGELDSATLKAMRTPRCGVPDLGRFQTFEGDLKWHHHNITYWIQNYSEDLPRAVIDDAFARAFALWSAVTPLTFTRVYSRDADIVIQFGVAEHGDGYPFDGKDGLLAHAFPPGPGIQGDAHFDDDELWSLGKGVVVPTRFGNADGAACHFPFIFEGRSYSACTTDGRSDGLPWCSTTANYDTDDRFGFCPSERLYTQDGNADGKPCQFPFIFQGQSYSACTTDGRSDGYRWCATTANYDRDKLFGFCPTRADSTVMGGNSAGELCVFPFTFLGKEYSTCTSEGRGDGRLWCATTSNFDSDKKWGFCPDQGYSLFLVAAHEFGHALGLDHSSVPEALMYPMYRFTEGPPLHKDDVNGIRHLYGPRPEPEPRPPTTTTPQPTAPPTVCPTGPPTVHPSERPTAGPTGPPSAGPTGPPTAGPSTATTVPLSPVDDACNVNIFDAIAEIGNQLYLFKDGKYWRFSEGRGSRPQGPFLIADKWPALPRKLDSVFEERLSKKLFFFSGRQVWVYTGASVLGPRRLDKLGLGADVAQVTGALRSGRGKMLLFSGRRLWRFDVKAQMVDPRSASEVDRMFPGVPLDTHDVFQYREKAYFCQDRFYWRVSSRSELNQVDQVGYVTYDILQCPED

Chain of 72 kDa type IV collagenase (P08253 whole entry): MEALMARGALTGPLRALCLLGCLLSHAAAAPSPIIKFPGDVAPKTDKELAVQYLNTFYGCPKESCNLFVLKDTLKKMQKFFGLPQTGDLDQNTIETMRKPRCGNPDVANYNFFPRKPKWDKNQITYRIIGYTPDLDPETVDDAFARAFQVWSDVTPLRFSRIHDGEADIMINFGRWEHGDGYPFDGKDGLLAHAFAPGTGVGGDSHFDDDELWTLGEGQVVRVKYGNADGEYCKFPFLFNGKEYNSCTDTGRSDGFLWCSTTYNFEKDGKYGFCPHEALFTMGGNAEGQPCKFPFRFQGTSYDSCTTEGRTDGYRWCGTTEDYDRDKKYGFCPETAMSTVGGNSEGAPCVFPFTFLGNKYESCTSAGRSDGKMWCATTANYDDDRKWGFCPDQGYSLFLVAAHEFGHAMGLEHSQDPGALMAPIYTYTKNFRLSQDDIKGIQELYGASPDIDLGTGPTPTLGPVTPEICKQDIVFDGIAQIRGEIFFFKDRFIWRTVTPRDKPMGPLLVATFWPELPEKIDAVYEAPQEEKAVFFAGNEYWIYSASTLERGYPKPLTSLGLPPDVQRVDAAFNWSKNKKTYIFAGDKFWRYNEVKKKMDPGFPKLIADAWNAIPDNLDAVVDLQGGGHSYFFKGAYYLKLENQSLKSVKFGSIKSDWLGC

Row | SMILES | IC50 [1] [µM] | IC50 [2] [µM] | IC50 [3] [µM]
1 | Oc1cc(O)c2c(c1)O[C@H](c1ccc(O)c(O)c1)[C@H](O)[C@H]2c1c(O)cc(O)c2c1O[C@H](c1ccc(O)c(O)c1)[C@H](O)[C@H]2c1c(O)cc(O)c2c1O[C@H](c1ccc(O)c(O)c1)[C@H](O)[C@H]2c1c(O)cc(O)c2c1O[C@H](c1ccc(O)c(O)c1)[C@H](O)[C@H]2c1c(O)cc(O)c2c1O[C@H](c1ccc(O)c(O)c1)[C@H](O)C2 | 21.4 | 43.2 | 39.2
2 | [H]/N=C(\N/C(=N/[H])NCCCCCCNC(=N)NC(=N)Nc1ccc(Cl)cc1)Nc1ccc(Cl)cc1 [CHLORHEXIDINE] |  | 7.63 | 7.63
3 | Oc1cc(O)c2c(c1)O[C@H](c1ccc(O)c(O)c1)[C@H](O)[C@H]2c1c(O)cc(O)c2c1O[C@H](c1ccc(O)c(O)c1)[C@H](O)[C@H]2c1c(O)cc(O)c2c1O[C@H](c1ccc(O)c(O)c1)[C@H](O)C2 [PROCYANIDIN C1] | 11.3 | 31.4 | 53.2

Second part, the compound after the results:

Row | IC50 [1] [µM] | IC50 [2] [µM] | IC50 [3] [µM] | SMILES
4 | 7.63 |  |  | CC(C)C[C@H](NP(=O)(O)O[C@@H]1O[C@@H](C)[C@H](O)[C@@H](O)[C@H]1O)C(=O)N[C@@H](Cc1c[nH]c2ccccc12)C(=O)O [PHOSPHORAMIDON]
5 | 0.98 | 12.4 | 27.3 | Oc1cc(O)c2c(c1)O[C@H](c1ccc(O)c(O)c1)[C@H](O)[C@H]2c1c(O)cc(O)c2c1O[C@H](c1ccc(O)c(O)c1)[C@H](O)[C@H]2c1c(O)cc2c(c1O)C[C@@H](O)[C@@H](c1ccc(O)c(O)c1)O2
6 | 0.34 | 0.4 | 2.3 | Oc1cc(O)c2c(c1)O[C@H](c1ccc(O)c(O)c1)[C@H](O)[C@H]2c1c(O)cc2c(c1O)C(c1c(O)cc(O)c3c1O[C@H](c1ccc(O)c(O)c1)[C@H](O)C3)[C@@H](O)[C@@H](c1ccc(O)c(O)c1)O2 (stereo not given in full)

Source: ChEMBL document CHEMBL1159106, “Identification of potential and selective collagenase, gelatinase inhibitors from Crataegus pinnatifida” (Bioorg Med Chem Lett, 2010)
